Legend:
[1] = tested on: L55 tumors; assay: L55 Humanized Tumor Model with hPBMC challenge; assay type: in vivo; conditions: for tolerability (body weight): with or without hPBMCs, over the course of the study
Text: Grow the human NSCLC cell line, L55, in RPMI 1640 medium supplemented with 10% fetal bovine serum. Harvest sub-confluent cells with trypsin and rinse twice with growth medium lacking serum. Initiate the growth of subcutaneous tumors by injecting 5×10^6 in a 1:1 mixture of HBSS and MATRIGEL® (BD Biosciences, Franklin Lakes, N.J.) in the rear flank of NOD.Cg-Prkdc^scidIl2rg^tm1Wjl/SzJ mice more commonly known as NOD scid gamma chain knockout mice (NSG) mice (The Jackson Laboratory, Bar Harbour, Me.), which lack T cells, B cells, NK cells, and are deficient in cytokine signaling. When the mean tumor volume reaches approximately 200-300 mm^3, randomize the animals by tumor size and body weight and place into their respective treatment groups as indicated. After randomization, challenge tumor-bearing mice with PBS alone (no PBMCs) or with PBS containing 1×10^7 human PBMCs into the tail vein of recipients.
(§1) Capture tumor size and body weight using Study Director. Estimate tumor volume (V) by using the formula: V=0.536×L×W^2 where L=larger measured diameter and W=smaller of the perpendicular diameter. Transform the tumor volume data to a log scale to equalize variance across time and treatment groups. Analyze the log volume data with a two-way repeated measures analysis of variance by time and treatment using the MIXED procedures in SAS software (Version 9.2). The correlation model for the repeated measures is Spatial Power. Compare treated groups to the control group at each time point. Use the MIXED procedure also separately for each treatment group to calculate adjusted means and standard errors at each time point. Both analyses account for the autocorrelation within each animal and for the loss of data that occurs when animals with large tumors are removed from the study early. Calculate relative changes in tumor volume (% T/C) using the tumor volume measurements taken nearest to the last day of dosing with Example 1A, using the formula % T/C=100×ΔT/ΔC, where T=mean tumor volume of the compound treated group, ΔT=mean tumor volume of the compound treated group minus the mean tumor volume on the baseline day, C=mean tumor volume of the control (vehicle) group, and ΔC=mean tumor volume of the control group minus the mean tumor volume on the baseline day. If ΔT<0, then a tumor regression value is calculated instead of % T/C whereby % Regression=100×ΔT/Tinitial such that Tinital=mean tumor volume on the baseline day.
(§2) Assess antitumor efficacy of Example 1A and LY3300054 alone, or in combination by measuring tumor volume by three dimensional caliper measurements twice a week during the course of the study. Measure body weight twice weekly during the course of the study, as a general indicator of tolerability.
(§3) Formulations for Example 1A and LY3300054: Formulate Example 1A on a weekly basis in 1% HEC/0.25% Tween 80/0.05% Antifoam and store at 4° C. Solublize LY3300054 in phosphate buffered saline and store at 4° C.
The L55 NCLC human cancer cell line is intrinsically resistant to the allo-response associated with the injection of hPBMCs. The goal of these studies is to assess the ability of compounds to potentiate the allo response allowing human T cells to target and restrict the growth of a human L55 tumors in a mouse that lacks an adaptive immune system (NSG mice). […]

[2] = tested on: SKOV3 cells; assay: Cell viability in SKOV3 cells (CELLTITER-GLO); assay type: cell-based
Experimental: The purpose of this assay is to evaluate the inhibition of the production of kynurenine, N-formyl-kynurenine and the depletion of tryptophan in IDO1 expressing cancer cells and assess whether compounds are overtly toxic to these cells. Exemplary compounds are tested for the inhibition of IDO1 activity in SKOV3 (ATCC, Cat # HTB-77), an ovarian cancer cell line that intrinsically expresses IDO1. Due to IDO1 expression, SKOV3 cells degrade tryptophan with the concomitant production of kynurenine and compounds are tested for their ability to inhibit the production of kynurenine, N-formyl-kynurenine and the depletion of tryptophan. Optionally, overt toxicity of compounds can be assessed by monitoring cell viability.
Plate SKOV3 cells, an IDO1-expressing ovarian cancer cell line, at 20,000 cells per well in 100 μL of McCoys 5A media (Gibco, Cat #16600-082) supplemented with non-essential amino acids (Gibco, Cat #11140-050), 1 mM sodium pyruvate (Gibco, Cat #11360-070), and 10% fetal bovine serum, complete media, in a 96 well tissue culture plate (BD Biosciences). Then, incubate cells for 16 hours in a 37° C. incubator with 5% CO2. […] Optionally, return original plate(s) to the incubator for an additional 24 hours and measure the viability of cells by adding an equal volume of CELLTITER-GLO® (Promega) and measure luminescence in an PERKIN ELMER® EnVision plate reader.

[3] = molecular target: T1, IDO1 (Homo sapiens, UniProt P14902); assay: In Vivo Target Inhibition Assay (SKOV3X tumors); conditions: mouse, 12 hours after dosing, SKOV3X tumor-bearing mice, read-out: inhibition of kynurenine in tumor
T1 construct: an ovarian cancer cell line that intrinsically expresses IDO1; endogenous in cells; host or cells: SKOV3 (ATCC HTB-77) in culture; SKOV3X (Indiana University Research and Technology Center) as intraperitoneal tumors in athymic nude mice
T1 sequence (P14902 whole entry): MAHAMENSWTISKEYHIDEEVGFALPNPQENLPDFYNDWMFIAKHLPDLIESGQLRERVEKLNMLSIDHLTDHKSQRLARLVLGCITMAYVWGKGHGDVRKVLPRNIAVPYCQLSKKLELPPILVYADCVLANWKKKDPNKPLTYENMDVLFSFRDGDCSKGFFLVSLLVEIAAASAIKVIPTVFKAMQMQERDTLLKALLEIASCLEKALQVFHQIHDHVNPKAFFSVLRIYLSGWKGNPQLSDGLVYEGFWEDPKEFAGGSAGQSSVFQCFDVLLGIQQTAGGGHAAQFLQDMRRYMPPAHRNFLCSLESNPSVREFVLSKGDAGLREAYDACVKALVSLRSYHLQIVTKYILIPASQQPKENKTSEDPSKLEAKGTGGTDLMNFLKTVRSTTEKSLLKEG
Text: The purpose of this assay is to evaluate the inhibition of kynurenine production and tryptophan depletion in cancer cells in vivo. SKOV3X (Indiana University Research and Technology Center), an ovarian cancer cell line, intrinsically expresses IDO1 and readily forms tumors in the peritoneal cavity of Athymic Nude-Foxn1^nu mice (Harlan). As a consequence of IDO1 expression, SKOV3X tumors locally deplete tryptophan with the concomitant production of high levels of kynurenine in the tumor microenvironment. The purpose of this assay is to measure the ability of test compounds to inhibit IDO1 evidenced by the clear reduction in kynurenine levels in the tumor.
Culture SKOV3X in McCoys 5A media (Gibco, Cat #16600-082) supplemented with non-essential amino acids (Gibco, Cat #11140-050), 1 mM sodium pyruvate (Gibco, Cat #1360-070) and 10% FBS and incubate at 37° C. in 5% CO2. Trypsinize and isolate cells from culture and resuspend cells in Hank's balanced salt solution (HBSS). Implant 2×10^6 SKOV3X cells into the intraperitoneal cavity of each Athymic Nude-Foxn1^nu mouse (Harlan). Approximately three weeks post-implantation, palpate animals to ensure tumor formation and randomize tumor-bearing mice into vehicle control and compound treatment groups. Administer compound formulated in vehicle containing 1% hydroxyethylcellulose (HEC) and 0.025% TWEEN® 80 and 0.05% Antifoam or vehicle alone by oral gavage. Generate time-course inhibition profile by dosing tumor-bearing animals with a single dose and collect plasma, liver, and tumor samples at 2, 4, 8, 12, and 24 hours post dose. Collect blood into EDTA-containing blood collection tubes (Greiner bio-one, Cat #450474) and centrifuge at 2365×g, isolate plasma, and freeze at −80° C. Isolate liver and tumor fragments, record weights and flash freeze and store at −80° C.
Prepare calibration standards for L-kynurenine and L-tryptophan by first generating stripped matrices, which are plasma and tissue homogenates depleted of L-kynurenine and L-tryptophan by dialysis. […]

[4] = tested on: Colon26 tumors; assay: Mouse Syngeneic Colon26 Model; assay type: in vivo; conditions: for changes in tumor volume (% T/C) / reduction in body weight compared to baseline: day 20
Experimental: Grow the mouse BALB/c-derived Colon26 colon cancer cell line in RPMI 1640 medium supplemented with 10 mM HEPES, […] sodium pyruvate, and 10% fetal bovine serum. Harvest sub-confluent cells with trypsin and rinse twice with complete growth medium lacking serum. Initiate subcutaneous tumors by injecting 1×10^6 cells resuspended in HBSS in the rear flank of immune-competent BALB/c mice (Envigo, Indianapolis, Ind.). Six days after tumor implantation, randomize animals based on body weight and place into their respective treatment groups using the number of animals per group as indicated.
as §1, §2, §3
Treat female BALB/c mice (n=10) bearing Colon26 tumors with Example 1A twice daily for 21 days by oral gavage at doses of 10, 50, and 100 mg/kg. Start administration of Example 1A six days after tumor implantation, and monitor tumor growth and body weight twice a week for the duration of the treatment period.

[5] = 10 mg/kg twice daily oral gavage
[6] = 50 mg/kg twice daily oral gavage
[7] = 100 mg/kg twice daily oral gavage

Compound: LY3300054: an antibody that binds human PD-L1, light and heavy chains defined by SEQ ID NOs
- change in tumor volume (% T/C) ([1]; 10 mg/kg intraperitoneal once a week for 4 weeks, hPBMCs, day 37, vs vehicle alone lacking PBMCs): 75.7%
- tolerability (body weight) ([1]; LY3300054 10 mg/kg once a week): No significant tolerability issues

Compound: C[C@@H](NC(=O)c1ccc(F)cc1)c1ccc2c(c1)CCN2C(=O)C1CCOCC1 (single isomer, unassigned) [Example 1A]
- concentration up to which cell proliferation is not inhibited [2]: ≥ 10 µM
- inhibition at 5 mg/kg ([3]; 5 mg/kg single oral dose): 37%
- inhibition at 25 mg/kg ([3]; 25 mg/kg single oral dose): 59%
- inhibition at 75 mg/kg ([3]; 75 mg/kg single oral dose): 79%
- changes in tumor volume (% T/C) [4, 5]: 17.5%
- reduction in body weight compared to baseline [4, 5]: 2.5%
- changes in tumor volume (% T/C) [4, 6]: 31.2%
- reduction in body weight compared to baseline [4, 6]: 8%
- changes in tumor volume (% T/C) [4, 7]: 62.6%
- reduction in body weight compared to baseline [4, 7]: 2.5%
- tolerability (body weight changes) ([4]; 10, 50 and 100 mg/kg twice daily for 21 days, compared to vehicle-treated mice): no significant tolerability issues
- % T/C ([1]; 75 mg/kg twice daily oral for 21 days, presence of hPBMCs, day 41, vs vehicle control lacking hPBMCs): 47.6%
- tumor growth inhibition ([1]; 75 mg/kg twice daily oral, absence of hPBMCs, compared to vehicle alone without PBMCs): did not result in significant tumor growth inhibition
- tolerability (body weight) ([1]; Example 1A 75 mg/kg twice daily): No significant tolerability issues

From patent US10759786B2, “1-tetrahydropyranylcarbonyl-2,3-dihydro-1H-indole compounds for treating cancer” (Eli Lilly and Company, priority 2016, dated 2020)
